Here are results for one compound from patent publication US10765638B2, “Particle formulation with polycation complex” (Yale University, priority 2017, dated 2020).

Each structure is given as a SMILES string.

For one assay, the system named is MET, PDGFR and FGFR RTKs. Kind of assay: Western blot of MET, PDGFR and FGFR phosphorylation and levels in glioma cells. In kind it is cell-based. The protocol: In this study, the D54, SKMG3, U251, T98G and 42-MG glioma cell lines were used. The source of D54, SKMG3 and U251 cells has been described previously (Contessa at al., Clin Cancer Res., 16:3205-14 (2010), Lopez et al., Int J Radiat Oncol Biol Phys., 69:214-20 (2007)). The 42-MG and T98G cells were provided by Todd Waldman (Georgetown University) and Dr. Ranjit Bindra (Yale University), respectively. The cells were cultured in DMEM/F12 (D54 and T98G), DMEM (42-MG and U251) or RPMI 1640 (SKMG3)+10% FBS supplemented with penicillin and streptomycin (Gibco, Life Technologies, Grand Island, N.Y., US) in a humidified incubator with 5% CO2, and they were kept in culture no more than 6 months after resuscitation from the original stocks. […] Mycoplasma cell culture contamination was routinely checked and ruled out using a biochemical test (MycoAlert Mycoplasma Detection Kit from Lonza, Rockland, Me. USA). Tunicamycin was purchased from Calbiochem/EMD-millipore (Burlington, Mass., USA). Cetuximab and Erlotinib were purchased at Selleck Chemicals LLC (Houston, Tex., USA). Luciferin was supplied by Promega (Madison, Wis. USA). For in vitro experiments, radiation (XRT) was administered at room temperature using a Precision X-ray 320-kV orthovoltage unit at a dose rate of 2 Gy/45 seconds (PXI X-Ray Systems) with 2 mm aluminum filter. For in vivo studies, radiation was administered at room temperature using a Precision X-ray 250-kV orthovoltage unit at a dose rate of 6.42 Gy/min (PXI X-Ray Systems) with 2 mm aluminum filter. Quality Assurance for both irradiators was performed monthly using a P.T.W. 0.3 cm^3 Ionization Chamber calibrated to NIST standards and quarterly dosimetry using thermoluminescent dosimeter (TLD)-based or ferrous sulfate-based dosimeters.

A further assay relates to D54 cells. Kind of assay: Phospho-γH2AX foci formation after radiation. In kind it is cell-based. The method, then: (§1) To determine histone H2AX phosphorylation (γH2AX), cells were cultured on glass cover slips and pre-treated with either vehicle or NGI-1 for 48 hours followed by radiation treatment. Samples were fixed with 4% neutral-buffered formaldehyde, washed (0.1% triton in PBS for 30 minutes) and incubated for 1 hour with protein-blocking solution (PBS containing 10% normal goat-horse serum; Sigma-Aldrich, Saint Louis, Mich., US). Next, the slides were incubated with primary anti-phospho-histone γH2AX S139 (1:500, Millipore-Upstate, Billerica, Mass., US) followed by incubation with secondary antibody Alexa Fluor 555-conjugated goat anti-mouse IgG (1:750, Molecular probes/Invitrogen, Carlsbad, Calif., US), for 1 hour at room temperature. Nuclei were stained using DAPI containing vectashield mounting solution (Vector Labs). Confocal cellular images were captured with an inverted Zeiss LSM 510 Pascal laser confocal microscope (C. Zeiss, Jenna, Germany), using a 63/1.4 plan-apochromat objective. Five randomly selected fields s per slide were analyzed. Cells were counted using the ImageJ program, public domain Java image processing software.

For a further assay, the system named is T98G cells. Kind of assay: Phospho-γH2AX foci formation after radiation. In kind it is cell-based. Conditions: 2 hours after 4 Gy, 10 μM NGI-1. The protocol:
as §1

In a further assay the test system is U251 cells. Kind of assay: Phospho-γH2AX foci formation after radiation. In kind it is cell-based. The conditions noted are these: 2 hours after 4 Gy, 10 μM NGI-1. The protocol: as §1
Another assay concerns SKMG3 cells. As to the kind of experiment: Cell cycle distribution by flow cytometry. In kind it is cell-based, human. The protocol:
Cell cycle distribution was determined following treatment with vehicle, radiation and/or 10 uM NGI-1. Cells were trypsinized and centrifuged, washed once with ice-cold PBS, fixed with ice-cold 70% ethanol and stored overnight at −20° C. After washing twice with PBS, they were incubated for 30 minutes at room temperature in 200 μL of Guava Cell Cycle Reagent (Guava Technologies). Cytofluorometric acquisitions were performed on a LSRII cytometer (BD Biosciences). First-line analysis was performed with FlowJo software, upon gating of the events characterized by normal forward and side scatter parameters and discrimination of doublets in a FSC-A vs. FSC-H bivariate plot. Approximately 50,000 cells were analyzed per experiment.

In a further assay the test system is HCC827-GR cells. Kind of assay: Apoptosis by Annexin V flow cytometry. In kind it is cell-based. Conditions: NGI-1 treatment alone. The protocol: First-line analysis was performed with Flow Jo software. Approximately 50,000 cells were analyzed per experiment, and the mean value was obtained from 3 independent assays.
In another assay the test system is PC9 and PC9-GR cells. Kind of assay: MTT proliferation assay. In kind it is cell-based. The conditions noted are these: both parental and T790M expressing PC9 cell lines; 10 μM NGI-1, 5 days. The method, then:
(§2) The H1975 and A549 cell lines were purchased from ATCC (Manassas, Va.), the PC9 cell line was a gift from Katie Politi, and the HCC-827 and HCC-827-GR lines were gifts from Jeff Engelman (MGH, Boston Mass.). Cell lines were cultured in RPMI 1640+10% FBS supplemented with penicillin and streptomycin (Gibco, Life Technologies, Grand Island, N.Y., US) in a humidified incubator with 5% CO2, and they were kept in culture no more than 4 months after resuscitation from the original stocks. No additional authentication was performed. Mycoplasma cell culture contamination was routinely checked and ruled out using the MycoAlert Mycoplasma Detection Kit (Lonza, Rockland, Me. USA). To generate a TKI resistant cell lines, either PC9 or H1975 cells were exposed to increasing concentrations of gefitinib or osimertinib, respectively. Gefitinib or Osimertinib concentrations were increased stepwise when cells resumed growth kinetics similar to the untreated parental cells over a dose range from 10 to 500 nM. Resistant cell cultures were obtained ˜8-12 weeks after initiation of drug exposure. To confirm the emergence of a therapeutic resistant, MTT assays were performed after allowing the cells to grow in drug-free conditions for at least 4 days.
(§3) Growth rates were determined by CellTiter 96 NonRadioactive Cell Proliferation Assay (Promega; Madison, Wis., USA) according to the manufacturer's directions. Briefly, NSCLC cells (2×103) untreated or treated with 10 μM NGI-1, 100 nM Gefitinib, or 1 μM Osimertinib (Selleck Chemicals), were seeded in triplicate in 96-wells plates and grown in culture medium containing 10% serum. The media was changed with or without new inhibitor every 48 h. Cell numbers were estimated after 0, 3, and 5 days by adding MTT (3-(4,5-dimethylthiazol-2-yl)-2,5-diphenyltetrazolium bromide) reagent to the wells 4 h before taking the spectrophotometric reading (absorbance at 570 nm).

For the next assay, the system named is H1975 and H1975-OR cells. As to the kind of experiment: MTT proliferation assay. The conditions noted are these: both parental and H1975-OR cell lines; 10 μM NGI-1, 5 days. In kind it is cell-based. The method, then: as §2, §3
Assay [1] concerns HCC827 and HCC827-GR cells. As to the kind of experiment: MTT proliferation assay. In kind it is cell-based. The conditions noted are these: both parental and HCC827-GR cells; 10 μM NGI-1, 5 days. The protocol:
as §2, §3

On to `Cc1cnc(NC(=O)c2cc(S(=O)(=O)N(C)C)ccc2N2CCCC2)s1` [NGI-1, 5-(dimethylsulfamoyl)-N-(5-methyl-1,3-thiazol-2-yl)-2-(pyrrolidin-1-yl)benzamide], for which, in the assay on MET, PDGFR and FGFR RTKs (42-MG, SKMG3, and T98G cells), the “phosphorylation of PDGFR” value is “uniformly reduced”. The “phosphorylation of MET” value with MET, PDGFR and FGFR RTKs (D54, SKMG3, U251, and T98G cells) was “uniformly reduced phosphorylation”. Besides, in the assay with MET, PDGFR and FGFR RTKs (glioma cell lines), the FGFR1 levels result was “increased”. Besides, the FGFR1 receptor phosphorylation result with MET, PDGFR and FGFR RTKs (glioma cell lines) is “not accompanied by an increase in receptor phosphorylation”. In the assay with D54 cells (4 Gy + 10 μM NGI-1, radiation alone 6.4-fold), the “increase of phospho-γH2AX foci formation, time course” value is recorded as 8.6 fold. Besides, the “increase of phospho-γH2AX foci formation compared to radiation alone (factor)” value with D54 cells (2 hours after 4 Gy, 10 μM NGI-1) is 1.3. In addition, the “enhancement of phospho-γH2AX foci formation” value in the assay on T98G cells and in the assay on U251 cells was “no enhancement” throughout. Besides, the “cells in G1 (G1 arrest)” value with SKMG3 cells (SKMG3, 48 hours of 10 uM NGI-1, control 69%) is reported as 78%. The “cells in G1 six hours after 4 Gy” value in the assay with SKMG3 cells (SKMG-3, NGI-1 + 4 Gy, 56% without NGI-1) came out at 72%. Further, the induction of apoptosis entry in the assay with HCC827-GR cells was “not sufficient to induce apoptosis”. Moreover, the reduction of proliferation in the assay on PC9 and PC9-GR cells was around 90%; in the assay with H1975 and H1975-OR cells, “more than 70%”; in assay [1], 80%.
